Test results as given in patent publication US20090326014A1, “Use of 5-ht7 receptor agonists for the treatment of pain” (Laboratorios Del Dr. Esteve, S.A., priority 2006, published 2009).

Experiments:
h5-HT1A = target: T1, h5-HT1A (Homo sapiens, UniProt P08908); experiment: Radioligand binding assay, h5-HT1A; conditions: h5-HT1A; read-out: Affinity [ki (nM)]
T1 sequence (P08908 1-422): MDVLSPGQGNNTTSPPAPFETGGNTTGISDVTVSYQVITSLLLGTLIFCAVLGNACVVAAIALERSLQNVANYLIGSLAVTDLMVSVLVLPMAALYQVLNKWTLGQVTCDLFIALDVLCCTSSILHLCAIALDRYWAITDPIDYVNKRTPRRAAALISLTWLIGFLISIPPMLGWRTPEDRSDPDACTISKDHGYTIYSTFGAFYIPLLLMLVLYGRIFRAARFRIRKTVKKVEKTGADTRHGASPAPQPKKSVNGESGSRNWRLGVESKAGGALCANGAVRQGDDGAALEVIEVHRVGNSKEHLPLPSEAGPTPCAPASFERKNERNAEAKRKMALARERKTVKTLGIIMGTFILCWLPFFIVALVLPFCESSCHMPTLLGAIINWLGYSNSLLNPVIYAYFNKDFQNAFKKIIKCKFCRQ

h5-HT1B = h5-HT1B (Homo sapiens, UniProt P28222); experiment: Radioligand binding assay, h5-HT1B; conditions: read-out: Affinity [ki (nM)]
h5-HT1D = h5-HT1D (Homo sapiens, UniProt P28221); experiment: Radioligand binding assay, h5-HT1D; conditions: read-out: Affinity [ki (nM)]
h5-HT1E = h5-HT1E (Homo sapiens, UniProt P28566); experiment: Radioligand binding assay, h5-HT1E; conditions: read-out: Affinity [ki (nM)]
h5-HT1F = target: T2, h5-HT1F (Homo sapiens, UniProt P30939); experiment: Radioligand binding assay, h5-HT1F; conditions: read-out: Affinity [ki (nM)]
T2 sequence (P30939 1-366): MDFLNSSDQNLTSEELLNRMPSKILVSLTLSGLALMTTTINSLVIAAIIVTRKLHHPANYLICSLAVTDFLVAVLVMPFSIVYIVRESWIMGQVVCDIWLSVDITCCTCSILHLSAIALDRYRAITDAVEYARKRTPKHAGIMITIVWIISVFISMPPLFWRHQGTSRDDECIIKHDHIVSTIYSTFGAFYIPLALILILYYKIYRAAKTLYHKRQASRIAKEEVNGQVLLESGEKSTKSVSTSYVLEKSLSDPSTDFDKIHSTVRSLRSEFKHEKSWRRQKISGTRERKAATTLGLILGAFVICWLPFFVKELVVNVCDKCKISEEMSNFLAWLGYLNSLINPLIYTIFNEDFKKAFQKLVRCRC

h5-HT2A = h5-HT2A (Homo sapiens, UniProt P28223); experiment: Radioligand binding assay, h5-HT2A; conditions: read-out: Affinity [ki (nM)]
h5-HT2B = h5-HT2B (Homo sapiens, UniProt P41595); experiment: Radioligand binding assay, h5-HT2B; conditions: h5-HT2B; read-out: Affinity [ki (nM)]
h5-HT2C = h5-HT2C (Homo sapiens, UniProt P28335); experiment: Radioligand binding assay, h5-HT2C; conditions: h5-HT2C; read-out: Affinity [ki (nM)]
h5-HT6 = h5-HT6 (Homo sapiens, UniProt P50406); experiment: Radioligand binding assay, h5-HT6; conditions: h5-HT6; read-out: Affinity [ki (nM)]
[1] = system: capsaicin-induced mechanical allodynia; experiment: Capsaicin test, proallodynic protocol (4 ng capsaicin, 0.25 g von Frey filament); type: in vivo, mice; conditions: 0.25 g pressure
Description: Alternatively, in some experiments, only 4 ng (instead of 1 μg) of capsaicin were injected into the paw and the pressure exerted by the filament was reduced to 0.25 g (instead of 1 g). […] This approach was used to test the possibility that treatments could exert a proallodynic effect. The FIG. 1 summarizes the two different experimental approaches carried out in this study.

[2] = system: mechanical allodynia induced by partial sciatic nerve ligation; experiment: Partial sciatic nerve ligation, von Frey test (mechanical allodynia); type: in vivo, mice
Text: Mechanical allodynia was quantified by measuring the tactile threshold for hind paw withdrawal following von Frey filament stimulation. […] The filament exerted an increasing upward pressure on the plantar surface. The pressure increased linearly with time (0.1 g/s; from 0 to 5 g in 50 s) until the mouse withdrew its paw. […] A cut-off threshold of 5 g (50 s) was imposed.
The filament of 0.4 g was first used. […] This up-down procedure was stopped four measures after the first change in animal responding and the threshold of response was calculated. Clear paw withdrawal, shaking was considered as a nociceptive-like response.

h5-HT7 = h5-HT7 (Homo sapiens, UniProt P34969); conditions: read-out: Affinity [ki (nM)]
5-HT7 receptors = 5-HT7 receptors (Homo sapiens, UniProt P34969); conditions: Mahe et al., 2004; Romero et al., 2006; cited from earlier work
[3] = system: thermal hyperalgesia induced by partial sciatic nerve ligation; experiment: Partial sciatic nerve ligation, plantar test (thermal hyperalgesia)
Description: Animals were housed in groups of five, provided with food and water ad libitum and kept in controlled laboratory conditions with the temperature maintained at 21±1° C. and light in 12 h cycles (on at 07:00 h and off at 19:00 h). Experiments were carried out in a soundproof and air-regulated experimental room.
The rest of compounds were prepared as aqueous solutions. Doses were calculated based on the molecular weight of the free base. All the compounds and vehicles (1% DMSO or physiological saline) were administered in a volume of 5 ml/kg through the subcutaneous (s.c.) route. When two compounds were co-administered, they were injected s.c. in opposite flanks of the mice.
This model consists of partial injury to the sciatic nerve at mid-thigh level. All surgical procedures for nerve injury were performed under isoflurane (IsoFlo®, Abbott-Laboratorios Dr. Esteve, S. A., Barcelona, Spain) anesthesia (induction: 3%; surgery: 2%). Briefly, mice were anaesthetized and the common sciatic nerve was exposed at the level of the mid-thigh of the right hind paw. Partial nerve injury was produced at about 1 cm proximal to the nerve trifurcation by tying a tight ligature around approximately 33 to 50% the diameter of the sciatic nerve using 9-0 non-absorbable virgin silk suture (Alcon surgical, Texas, USA). Ligature enclosed the outer ⅓-½ sciatic nerve whereas the rest of the nerve (inner ⅔-½) was leaved “uninjured”. The muscle was then stitched with 6-0 silk suture and the skin incision was closed with wound clips. Control, sham-operated mice underwent the same surgical procedure and the sciatic nerve was exposed, but not ligated. After surgery, animals were allowed to recover for 5 days prior to initiation of nociceptive behavioral tests (see experimental protocol below).
The effectiveness of acute treatments with 5-HT7 ligands compared to vehicle on the expression of neuropathic pain was investigated based on the following experimental protocol. […] After the habituation period, pre-injury baseline responses in each test were established during 2 consecutive days. One day after baseline measurements, nerve injury or sham operation was induced as previously described. Mice were then tested in either the von Frey or the plantar test on day 5 after the surgical procedure to monitor post-injury responses. Post-injury baseline responses of mice treated with vehicle were obtained on day 10 (basal pre-treatment). On days 11-13 mice received treatment with three different doses of 5-HT7 ligands following a Latin square design. Finally, on day 14 after surgery, baseline responses in vehicle-treated mice (basal post-treatment) were evaluated as an internal control to ensure that mechanical allodynia and thermal hyperalgesia were not influenced by previous treatments in the Latin square design.

[4] = system: capsaicin-induced mechanical allodynia; experiment: Capsaicin test, antiallodynic protocol (1 μg capsaicin, 1 g von Frey filament); conditions: for effect on capsaicin-induced mechanical allodynia: 1 g filament
Description: Animals were housed in groups of five, provided with food and water ad libitum and kept in controlled laboratory conditions with the temperature maintained at 21±1° C. and light in 12 h cycles (on at 07:00 h and off at 19:00 h). Experiments were carried out in a soundproof and air-regulated experimental room. The number of mice per group in each individual experiment was 16.
Capsaicin (8-methyl-N-vanillyl 6-nonamide) was dissolved in 1% DMSO (vehicle). […] Doses were calculated based on the molecular weight of the free base. All the compounds and vehicles (1% DMSO or physiological saline) were administered in a volume of 5 ml/kg through the subcutaneous (s.c.) route. When two compounds were co-administered, they were injected s.c. in opposite flanks of the mice.
Subplantar capsaicin injection initially evokes a nocifensive behavior that is characterized by lifting and guarding the injected paw and typically lasts up to 5 min following injection. […] In this study, sensitization by subplantar capsaicin injection was used to assess the effect of several 5-HT7 ligands on mechanical allodynia.
Drug treatments with 5-HT7 ligands were done 30 min before capsaicin injection and withdrawal latencies to a mechanical stimulus were determined 15 min after capsaicin injection (FIG. 1).
Mechanical allodynia was quantified by measuring the hind paw withdrawal response latency to von Frey filament stimulation. Mice were placed into compartment enclosures in a test chamber with a framed metal mesh floor and allowed to acclimate to their environment for 120 min before testing. […] The mechanical stimulus was applied to the plantar surface of the right, capsaicin-injected hind paw from below the mesh floor by using an automated testing device (dynamic plantar aesthesiometer; Ugo Basile, Italy) that lifts a straight filament (0.5 mm diameter). The filament exerted a fixed upward pressure (1 g or 0.25 g) on the plantar surface. When the animal withdrew its hind paw, the mechanical stimulus automatically stopped and the latency time was recorded. Latency was defined as the time from the onset of exposure to the filament to the cessation of the pressure when the sensor detected the withdrawal of the paw. A cut-off latency of 60 sec was imposed. Paw withdrawal latencies were measured in triplicate for each animal.
This approach enabled us to evaluate the possible antiallodynic effect of 5-HT7 ligands.
Data are presented as mean paw withdrawal latency responses in sec±S.E.M. Capsaicin-injected hind paw withdrawal responses to mechanical stimulation of treated mice were compared with those of untreated (vehicle-treated) mice. Statistical analysis to test intergroup comparisons was made using an initial one-way analysis of variance followed by the Newman-Keuls multiple comparison test. The level of significance was set at p<0.05.

[5] = system: sciatic nerve-ligatured rats; experiment: Chronic constriction injury of the sciatic nerve (CCI-SN), Randall-Sellito test; conditions: antagonist i.p., 5a-MSD s.c.; sciatic nerve-ligated rats
Description: All compounds were prepared as aqueous solutions. […] When two compounds were co-administered, one was injected s.c. and the other i.p.
Briefly, the right common sciatic nerve was exposed at mid-tight level by blunt dissection through the biceps femoris muscle. Proximal to the trifurcation, ≈10 mm of nerve was freed from adhering tissue and four loose ligatures (5.0 chromic catgut) were tied around the sciatic nerve (≈1 mm apart). […] In sham-operated control rats, an identical dissection was performed on the right side allowing the sciatic nerve to be freed from surrounding tissue, but not ligatured. Finally, muscle and skin were closed in layers with silk thread.
Mechanical nociceptive thresholds, expressed as grams (g), were measured using the Randall-Sellito test (Ugo Basile analgesimeter; Bioseb, Chaville, France). An increasing pressure was applied to the nerve-injured hindpaw of unrestrained rats until paw withdrawal (PW) and then a squeak (i.e. the vocalization threshold when the paw was held under pressure) were obtained. As PW is a spinally coordinated reflex whereas vocalization is a supra-spinal integrated response (Kayser and Christensen, 2000), this test allowed assessment of the respective contribution of spinal versus supra-spinal mechanisms.

Chain of h5-HT2B (P41595 whole entry): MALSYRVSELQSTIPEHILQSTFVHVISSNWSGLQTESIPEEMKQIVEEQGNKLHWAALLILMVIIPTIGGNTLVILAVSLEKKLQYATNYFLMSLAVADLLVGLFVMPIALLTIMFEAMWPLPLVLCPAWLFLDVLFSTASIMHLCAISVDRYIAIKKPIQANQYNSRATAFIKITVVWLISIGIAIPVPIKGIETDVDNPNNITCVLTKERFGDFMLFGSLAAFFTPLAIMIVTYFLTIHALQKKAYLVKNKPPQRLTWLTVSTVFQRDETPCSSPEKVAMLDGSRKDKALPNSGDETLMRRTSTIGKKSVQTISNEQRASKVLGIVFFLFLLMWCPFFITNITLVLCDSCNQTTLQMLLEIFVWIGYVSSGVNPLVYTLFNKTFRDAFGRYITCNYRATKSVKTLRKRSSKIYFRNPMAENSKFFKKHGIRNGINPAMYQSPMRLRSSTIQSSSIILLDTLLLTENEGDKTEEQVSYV
Chain of h5-HT2C (P28335 33-458): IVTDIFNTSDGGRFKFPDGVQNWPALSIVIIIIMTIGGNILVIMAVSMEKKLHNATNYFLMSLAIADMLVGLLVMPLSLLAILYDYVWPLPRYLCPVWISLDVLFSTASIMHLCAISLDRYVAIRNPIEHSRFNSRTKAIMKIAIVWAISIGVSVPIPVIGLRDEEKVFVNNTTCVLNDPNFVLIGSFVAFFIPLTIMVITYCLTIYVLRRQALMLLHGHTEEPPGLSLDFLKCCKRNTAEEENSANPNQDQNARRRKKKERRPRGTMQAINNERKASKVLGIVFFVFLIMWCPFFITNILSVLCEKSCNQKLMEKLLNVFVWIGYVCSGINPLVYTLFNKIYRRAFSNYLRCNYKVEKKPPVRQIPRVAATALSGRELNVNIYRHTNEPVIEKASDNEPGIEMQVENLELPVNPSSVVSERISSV
Chain of h5-HT1D (P28221 whole entry): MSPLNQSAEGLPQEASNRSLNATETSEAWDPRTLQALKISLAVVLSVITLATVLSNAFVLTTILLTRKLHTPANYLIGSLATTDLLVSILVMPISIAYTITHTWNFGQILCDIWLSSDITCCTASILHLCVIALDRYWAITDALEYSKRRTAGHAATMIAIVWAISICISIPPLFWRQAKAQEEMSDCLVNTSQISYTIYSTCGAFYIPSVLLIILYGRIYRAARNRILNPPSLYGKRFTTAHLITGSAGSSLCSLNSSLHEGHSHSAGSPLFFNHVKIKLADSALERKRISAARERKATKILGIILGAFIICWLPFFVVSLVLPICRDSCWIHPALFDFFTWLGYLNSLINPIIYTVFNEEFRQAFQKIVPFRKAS
Chain of h5-HT1E (P28566 whole entry): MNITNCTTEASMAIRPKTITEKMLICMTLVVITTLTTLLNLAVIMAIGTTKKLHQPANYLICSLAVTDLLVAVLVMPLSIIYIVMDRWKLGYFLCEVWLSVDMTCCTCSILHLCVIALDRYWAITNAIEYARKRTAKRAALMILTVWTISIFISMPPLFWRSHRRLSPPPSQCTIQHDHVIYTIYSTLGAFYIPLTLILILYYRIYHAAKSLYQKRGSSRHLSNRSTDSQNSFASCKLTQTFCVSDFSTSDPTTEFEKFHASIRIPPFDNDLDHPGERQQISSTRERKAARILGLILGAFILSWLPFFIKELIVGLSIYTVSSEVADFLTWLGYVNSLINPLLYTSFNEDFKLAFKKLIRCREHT
Chain of h5-HT2A (P28223 whole entry): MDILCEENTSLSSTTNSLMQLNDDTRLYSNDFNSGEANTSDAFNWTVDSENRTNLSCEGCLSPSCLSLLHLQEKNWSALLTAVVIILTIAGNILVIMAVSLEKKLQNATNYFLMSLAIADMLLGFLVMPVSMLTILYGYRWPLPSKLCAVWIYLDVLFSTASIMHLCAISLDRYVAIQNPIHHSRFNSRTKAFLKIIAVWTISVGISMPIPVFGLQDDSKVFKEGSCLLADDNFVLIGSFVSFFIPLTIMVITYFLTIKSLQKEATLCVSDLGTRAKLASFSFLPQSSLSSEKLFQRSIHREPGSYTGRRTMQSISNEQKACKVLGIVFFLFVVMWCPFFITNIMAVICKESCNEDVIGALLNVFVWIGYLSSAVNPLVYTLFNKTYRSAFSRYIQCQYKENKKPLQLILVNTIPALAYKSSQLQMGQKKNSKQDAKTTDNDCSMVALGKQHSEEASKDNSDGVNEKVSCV
Chain of h5-HT6 (P50406 whole entry): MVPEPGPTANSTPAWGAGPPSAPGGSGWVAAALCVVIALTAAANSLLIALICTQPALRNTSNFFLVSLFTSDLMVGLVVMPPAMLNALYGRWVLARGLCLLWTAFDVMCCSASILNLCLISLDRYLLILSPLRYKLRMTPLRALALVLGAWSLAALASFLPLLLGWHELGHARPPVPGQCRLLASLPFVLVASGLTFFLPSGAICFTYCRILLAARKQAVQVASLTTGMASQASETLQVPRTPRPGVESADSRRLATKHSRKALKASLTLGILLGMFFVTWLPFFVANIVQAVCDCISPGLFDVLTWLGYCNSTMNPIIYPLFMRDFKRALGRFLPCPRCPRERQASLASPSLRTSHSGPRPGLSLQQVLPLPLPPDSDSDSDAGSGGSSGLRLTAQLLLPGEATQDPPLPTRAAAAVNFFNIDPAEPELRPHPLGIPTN
Chain of h5-HT7 (P34969 whole entry): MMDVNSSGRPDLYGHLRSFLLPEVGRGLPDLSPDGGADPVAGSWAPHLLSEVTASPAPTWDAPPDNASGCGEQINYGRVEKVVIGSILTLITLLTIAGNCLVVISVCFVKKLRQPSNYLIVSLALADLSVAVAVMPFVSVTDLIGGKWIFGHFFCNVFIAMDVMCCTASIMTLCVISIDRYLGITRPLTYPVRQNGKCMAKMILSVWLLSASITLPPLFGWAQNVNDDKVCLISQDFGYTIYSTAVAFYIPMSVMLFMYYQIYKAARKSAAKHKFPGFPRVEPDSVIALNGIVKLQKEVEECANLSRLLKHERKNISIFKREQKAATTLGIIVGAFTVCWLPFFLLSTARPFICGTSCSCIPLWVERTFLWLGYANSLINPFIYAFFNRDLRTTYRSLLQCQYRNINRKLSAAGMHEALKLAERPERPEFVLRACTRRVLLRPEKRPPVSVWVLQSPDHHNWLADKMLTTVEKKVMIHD
Chain of 5-HT7 receptors (P34969 whole entry): as above
Chain of h5-HT1B (P28222 whole entry): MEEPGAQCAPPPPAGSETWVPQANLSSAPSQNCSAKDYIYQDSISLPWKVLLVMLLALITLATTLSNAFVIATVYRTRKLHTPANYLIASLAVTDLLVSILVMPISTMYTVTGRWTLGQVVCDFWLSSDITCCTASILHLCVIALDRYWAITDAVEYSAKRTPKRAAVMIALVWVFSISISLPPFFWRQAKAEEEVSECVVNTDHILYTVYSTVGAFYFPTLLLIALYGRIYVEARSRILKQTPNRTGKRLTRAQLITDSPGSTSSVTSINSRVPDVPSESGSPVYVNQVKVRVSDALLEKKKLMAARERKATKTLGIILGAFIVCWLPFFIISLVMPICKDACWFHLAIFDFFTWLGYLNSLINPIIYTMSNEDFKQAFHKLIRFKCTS

Cc1cccc(S(=O)(=O)N(C)[C@H](C)CCN2CCC(C)CC2)c1 [SB-258719, (R)-3,N-Dimethyl-N-(1-methyl-3-(4-methylpiperidin-1-yl)propyl)benzene sulfonamide]
Ki (h5-HT1A): > 1000 nM | Ki (h5-HT1B): > 1000 nM | Ki (h5-HT1D): > 1000 nM | Ki (h5-HT1E): > 1000 nM | Ki (h5-HT1F): > 1000 nM | Ki (h5-HT2A): > 1000 nM | Ki (h5-HT2B): > 1000 nM | Ki (h5-HT2C): > 1000 nM | Ki (h5-HT6): > 1000 nM | proallodynic effect (paw withdrawal latency) ([1]; 10 mg/Kg s.c.): allodynia was evidenced | proallodynic effect, dose-response ([1]; s.c.): dose-dependently promoted allodynia | effect alone on mechanical allodynia, nerve-injured mice ([2]; 5 mg/Kg s.c., day 11, single dose design): had no antiallodynic effect | effect on mechanical threshold of the nerve-injured hind paw (proallodynic) ([2]; 10 mg/kg s.c., nerve-injured mice): significantly decreased the mechanical threshold | effect on the antiallodynic effect of AS-19 and MSD-5a when co-administered ([2]; SB-258719 5 mg/Kg, AS-19 5 mg/kg, MSD-5a 10 mg/kg s.c., nerve-injured mice): able to reverse the antiallodynic effect | induction of mechanical allodynia in sham-operated mice ([2]; sham-operated, 10 mg/kg s.c.): able to induce mechanical allodynia | Ki (h5-HT7): 31.6 nM | functionality at 5-HT7 receptor as described (5-HT7 receptors): pure antagonist | effect on thermal hyperalgesia (paw withdrawal latency) ([3]; 0.1-10 mg/kg s.c.): did not exert any effects | effect on the antihyperalgesic effect of AS-19 when co-administered ([3]; SB-258719 5 mg/Kg + AS-19 5 mg/kg s.c., nerve-injured mice): blocked significantely the antihyperalgesic effects | effect on the antihyperalgesic effect of MSD-5a when co-administered ([3]; SB-258719 5 mg/Kg + MSD-5a 10 mg/kg s.c., nerve-injured mice): had a tendency to revert MSD-5a (10 mg/kg) without significancy | effect on capsaicin-induced mechanical allodynia ([4]; 20 mg/kg s.c.): significantly increased paw withdrawal latencies | effect on capsaicin-induced mechanical allodynia ([4]; 2.5, 5 and 10 mg/kg s.c.): unaffected | effect on the antiallodynic effect of AS-19 when co-administered ([4]; AS-19 at 5 and 10 mg/kg, WAY-100635 0.3 mg/kg or SB-258719 5 mg/kg s.c.): abolished | effect on the antiallodynic effect of MSD-5a when co-administered ([4]; SB-258719 5 mg/kg + MSD-5a 10 mg/kg s.c.): blocked this antiallodynic effect | effect on the antiallodynic effect of AS-19 when co-administered ([4]; SB-258719 2.5 and 5 mg/kg + AS-19 5 mg/kg s.c.): dose-dependently inhibited | effect on 5a-MSD-induced anti-hyperalgesia/anti-allodynia [5]: Blockade
